{"source": "patent EP0635577B1", "about": "“Screen for inhibitors of melanin biosynthesis” (BASF AKTIENGESELLSCHAFT, priority 1993, dated 1995)", "key": {"[1]": {"test_system": "wild-type strain M. grisea"}, "Cladosporium cucumerinum": {"test_system": "Cladosporium cucumerinum", "assay": "melanin biosynthesis inhibition screen, disk diffusion assay on solidified culture", "format": "cell-based", "details": "for Observation: inhibits, radius cleared: growth inhibition zone; for Observation: effect on growth and pigmentation in words", "method": "Potato dextrose medium (PDM) for the screening test is prepared by melting\nThe mixture is autoclaved as 150 ml aliquots at 121°C for 25 minutes.\nA chloramphenicol stock solution is prepared to contain 15 mg chloramphenicol per mL absolute ethanol and is stored at -20°C.\nConidia from Cladosporium cucumerinum, 10^7/mL in 0.03% Tween 20™, retain their viability for at least 12 weeks of storage in 1.8 ml cryovials at -85°C. Inoculum for running the screen are raised once every three months and stored without a cryoprotectant at the working concentration of 10^7 conidia/mL.\nFresh inoculum suspensions are prepared from conidial suspensions stored at -85°C. A cryovial is thawed by hand-heat, and 200 uL spread on the surface of PDA in 9 cm Petri dishes. Plates are placed in a resin box (to prevent fungal escape) and incubated at room temperature, 40 cm below laboratory fluorescent lights. Seven days later conidia are collected. Five mL of 0.03% Tween 20™ is added to each plate, and the conidia are released by rubbing the mycelium with a glass rod. The suspension is passed through a layer of sterile Miracloth™ and the concentration adjusted to 10^7 conidia/mL in 0.03% Tween 20™ using a haemocytometer. Aliquots of 1 mL are dispensed into cryovials and placed in a polystyrene holder to freeze slowly to -85°C.\nFor the test, 150 mL of PDM is cooled to 35°C, and 0.1 mL of chloramphenicol stock solution is added by gentle swirling. A vial of C. cucumerinum conidial suspension (10^7 conidia/ml in Tween 20™) thawed with hand-heat is mixed into the growth medium using gentle swirling. The mixture is poured immediately into a Biotray, and the agar is allowed to solidify.\nTest compounds are applied to 0.63 cm (¼ inch) filter disks. Each test includes a positive control, 200 ng tricyclazole in 20% dimethyl sulphoxide (DMSO). The plate is incubated at room-temperature (∼23°C) 40 cm below laboratory fluorescent lights. The plate is read 40 hours later. […] The Biotrays are autoclaved before disposal.\nThe compounds are applied as 20 ul droplets from a 1 mg/ml stock solution."}, "[2]": {"details": "Antifungal Panel, 20 ul droplets from a 1 mg/ml stock solution on filter disk, read 40 hours later"}, "[3]": {"details": "C. cucumerinum Antibiotic Panel, screen of Example 1"}}, "data": [{"compound": "Cc1cccc2sc3nncn3c12", "note": "[tricyclazole]", "values": [{"measurement": "inhibition of penetration", "setting": "[1]; 15 ng in 1.5% acetone, onion epidermal pieces, 25°C for 24 hours", "value": 100, "unit": "%"}, {"measurement": "penetration of freshly harvested onion epidermis by wild-type M. grisea", "setting": "[1]; in the presence of the inhibitor, about 90 to 95% of germinating wild-type conidia penetrate without it", "value": "no penetration"}]}, {"compound": "CC(C)(C)C(O)/C(=C\\c1ccc(Cl)cc1Cl)n1cncn1", "note": "(centres unmarked) [Diniconazole]", "values": [{"measurement": "Observation: inhibits, radius cleared", "setting": "Cladosporium cucumerinum; [2]", "value": "inhibits, 27 mm radius cleared"}]}, {"compound": "Clc1ccc(COC(Cn2ccnc2)c2ccc(Cl)cc2Cl)cc1", "note": "(centres unmarked) [Econazole]", "values": [{"measurement": "Observation: inhibits, radius cleared", "setting": "Cladosporium cucumerinum; [2]", "value": "inhibits, 32 mm radius cleared"}]}, {"compound": "CCCCNC(=O)n1c(NC(=O)OC)nc2ccccc21", "note": "[Benomyl]", "values": [{"measurement": "Observation: inhibits, radius cleared", "setting": "Cladosporium cucumerinum; [2]", "value": "inhibits, 31 mm radius cleared"}]}, {"compound": "C[C@@H]1[C@H](O)[C@@H](C)/C=C/C=C/C=C/C=C/C=C/C=C/C=C/[C@H](O[C@@H]2O[C@H](C)[C@@H](O)[C@H](N)[C@@H]2O)C[C@@H]2O[C@](O)(C[C@@H](O)C[C@@H](O)[C@H](O)CC[C@@H](O)C[C@@H](O)CC(=O)O[C@H]1C)C[C@H](O)[C@H]2C(=O)O", "note": "[Amphotericin B]", "values": [{"measurement": "Observation", "setting": "Cladosporium cucumerinum; [2]", "value": "no effect on growth or pigmentation"}]}, {"compound": "CP(=O)(O)CC[C@H](N)C(=O)O", "note": "[Phosphenothricin]", "values": [{"measurement": "Observation: inhibits, radius cleared", "setting": "Cladosporium cucumerinum; [2]", "value": "inhibits, 20 mm radius cleared"}]}, {"compound": "Azalomycin", "values": [{"measurement": "Observation: inhibits, radius cleared", "setting": "Cladosporium cucumerinum; [3]", "value": "inhibits, 14 mm radius cleared"}]}, {"compound": "Antimycin", "values": [{"measurement": "Observation: inhibits, radius cleared", "setting": "Cladosporium cucumerinum; [2]", "value": "inhibits, 13 mm radius cleared"}]}, {"compound": "C[C@@H]([C@H](N)C(=O)N[C@H](C(=O)O)[C@H]1O[C@@H](n2ccc(=O)[nH]c2=O)[C@H](O)[C@@H]1O)[C@H](O)c1ccc(O)cn1", "note": "[Nikkomycin]", "values": [{"measurement": "Observation: inhibits, radius cleared", "setting": "Cladosporium cucumerinum; [2]", "value": "inhibits, 38 mm radius cleared"}]}, {"compound": "Clc1ccc(COC(Cn2ccnc2)c2ccc(Cl)cc2Cl)c(Cl)c1", "note": "(centres unmarked) [Miconazole]", "values": [{"measurement": "Observation: inhibits, radius cleared", "setting": "Cladosporium cucumerinum; [2]", "value": "inhibits, 31 mm radius cleared"}]}, {"compound": "CCCCC[C@@H](O)[C@H]1C(=O)O[C@H](C)[C@@H](O)/C=C/C=C/C=C/C=C/C=C(\\C)[C@@H](O)[C@H](O)[C@H](O)C[C@H](O)C[C@H](O)C[C@H](O)C[C@H](O)C[C@@H]1O", "note": "[Pentamycin]", "values": [{"measurement": "Observation", "setting": "Cladosporium cucumerinum; [3]", "value": "no effect on growth or pigmentation"}]}, {"compound": "Cc1cccc(N(C)C(=S)Oc2ccc3ccccc3c2)c1", "note": "[Tolnaftate]", "values": [{"measurement": "Observation: inhibits, radius cleared", "setting": "Cladosporium cucumerinum; [2]", "value": "inhibits, 13 mm radius cleared"}]}, {"compound": "Cc1cc(O)c2c(c1)C(=O)[C@]13C(=C2O)C(=O)[C@@H]2[C@H](O)[C@H]1[C@@H]1[C@@H](O)[C@H]3C(=O)C3=C(O)c4c(O)cc(C)cc4C(=O)[C@]312", "note": "[Rugulosin]", "values": [{"measurement": "Observation: inhibits, radius cleared", "setting": "Cladosporium cucumerinum; [3]", "value": "inhibits, 9 mm radius cleared"}]}]}
